Reference: publication PMC5107132 (European journal of pharmacology, 2016)

Tested on: Wistar rats
Assay: Spontaneous locomotor activity
Format: in vivo, rat
Conditions: 15 mg/kg i.p., 45 min

## C#Cc1ccc2c(c1)C(c1ccccc1F)=N[C@H](C)c1c(C(=O)NC)ncn1-2 [MP-III-022, (R)-8-Ethynyl-6-(2-fluorophenyl)-N,4-dimethyl-4H-benzo[f]imidazo[1,5-a][1,4]diazepine-3-carboxamide]
  Spontaneous locomotor activity, total distance traveled: slight hyperlocomotion
